# Measured values from patent publication US20120208852A1, “Heterocyclic-substituted 2-acetamido-5-aryl-1,2,4-triazolones and use thereof” (BAYER PHARMA AKTIENGESELLSCHAFT, priority 2009, published 2012).
# How the values were obtained:
# [1] = target: T1, human V1a receptor (Homo sapiens, UniProt P37288); assay: Cellular in vitro assay for vasopressin receptor activity (aequorin luminescence), hV1a; assay type: cell-based; conditions: CHO cell line transfected with the human V1a receptor, agonist [Arg8]-vasopressin
# T1 construct: expressed in transfected cells; host or cells: CHO K1 (constitutively expressing modified aequorin)
# T1 sequence (P37288 whole entry): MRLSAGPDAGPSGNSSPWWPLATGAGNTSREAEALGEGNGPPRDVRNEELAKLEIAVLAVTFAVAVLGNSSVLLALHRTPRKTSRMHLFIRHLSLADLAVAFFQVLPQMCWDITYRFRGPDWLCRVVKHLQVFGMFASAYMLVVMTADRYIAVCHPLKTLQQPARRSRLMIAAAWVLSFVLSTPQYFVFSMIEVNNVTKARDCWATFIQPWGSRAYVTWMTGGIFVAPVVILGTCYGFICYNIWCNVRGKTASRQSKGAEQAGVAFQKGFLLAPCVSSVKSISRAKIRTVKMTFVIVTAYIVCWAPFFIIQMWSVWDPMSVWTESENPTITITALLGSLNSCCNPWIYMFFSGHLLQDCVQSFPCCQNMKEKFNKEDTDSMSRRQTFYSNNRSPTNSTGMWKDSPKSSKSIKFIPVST
# From the text: (§1) B-1. Cellular In Vitro Assay for Determining the Vasopressin Receptor Activity
# (§2) The identification of agonists and antagonists of the V1a and V2 vasopressin receptors from humans and rats and also the quantification of the activity of the substances described here took place using recombinant cell lines. These cells derive originally from a hamster ovary epithelial cell (Chinese Hamster Ovary, CHO K1, ATCC: American Type Culture Collection, Manassas, Va. 20108, USA). The test cell lines constitutively express a modified form of the calcium-sensitive photoprotein aequorin, which, after reconstitution with the cofactor coelenterazine, emits light when there are increases in the free calcium concentration (Rizzuto R., Simpson A. W., Brini M., Pozzan T.; Nature 358 (1992) 325-327). In addition, the cells are stably transfected with the human or rat V1a or V2 receptors. In the case of the Gs-coupling V2 receptors, the cells are stably transfected with a further gene, which codes for the promiscuous Gα16 protein (Amatruda T. T., Steele D. A., Slepak V. Z., Simon M. I., Proc. Nat. Acad. Sci. USA 88 (1991), 5587-5591), either independently or as a fusion gene. The resulting vasopressin receptor test cells react to stimulation of the recombinantly expressed vasopressin receptors by intracellular release of calcium ions, which can be quantified by the resulting aequorin luminescence using a suitable luminometer (Milligan G., Marshall F., Rees S., Trends in Pharmaco. Sci. 17 (1996) 235-237).
# (§3) Test procedure: On the day before the assay, the cells are plated out in culture medium (DMEM, 10% FCS, 2 mM glutamine, 10 mM HEPES) in 384-well microtiter plates and kept in a cell incubator (96% humidity, 5% v/v carbon dioxide, 37° C.). On the day of the assay, the culture medium is replaced by a Tyrode solution (140 mM sodium chloride, 5 mM potassium chloride, 1 mM magnesium chloride, 2 mM calcium chloride, 20 mM glucose, 20 mM HEPES), which additionally contains the cofactor coelenterazine (50 μM), and the microtiter plate is then incubated for a further 3-4 hours. The test substances in various concentrations are placed for 10 to 20 minutes in the wells of the microtiter plate before the agonist [Arg8]-vasopressin is added, and the resulting light signal is measured immediately in the luminometer. The IC50 values are calculated using the GraphPad PRISM computer program (Version 3.02).
# (§4) The table below lists representative IC50 values for the compounds of the invention on the cell line transfected with the human V1a or V2 receptor: […]
# [2] = target: T2, human V2 receptor (Homo sapiens, UniProt P30518); assay: Cellular in vitro assay for vasopressin receptor activity (aequorin luminescence), hV2; assay type: cell-based; conditions: CHO cell line transfected with the human V2 receptor and Gα16, agonist [Arg8]-vasopressin
# T2 construct: Galpha16 (possible fusion partner; the text says either independent or a fusion gene); expressed in transfected cells; host or cells: CHO K1 (constitutively expressing modified aequorin, co-transfected with Gα16)
# T2 sequence (P30518 whole entry, the tested form may be a part): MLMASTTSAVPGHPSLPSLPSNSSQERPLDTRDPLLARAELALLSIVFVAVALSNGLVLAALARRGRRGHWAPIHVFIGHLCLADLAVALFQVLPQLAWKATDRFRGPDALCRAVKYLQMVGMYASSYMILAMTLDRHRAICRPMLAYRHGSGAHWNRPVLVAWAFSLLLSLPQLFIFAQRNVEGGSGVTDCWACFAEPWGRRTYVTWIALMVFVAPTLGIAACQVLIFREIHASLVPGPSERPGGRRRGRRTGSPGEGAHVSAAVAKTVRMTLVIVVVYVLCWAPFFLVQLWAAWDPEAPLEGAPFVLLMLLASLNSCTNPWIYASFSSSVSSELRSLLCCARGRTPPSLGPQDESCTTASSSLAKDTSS
# From the text: as §1, §2, §3, §4
IC50 [1] [nM],IC50 [2] [nM],SMILES
6.5,3.2,"Cc1noc([C@](C)(NC(=O)Cn2nc(-c3ccc(Cl)cc3)n(C[C@H](O)C(F)(F)F)c2=O)c2cccc(C(F)(F)F)c2)n1 [Example 3, 2-{3-(4-Chlorophenyl)-5-oxo-4-[(2S)-3,3,3-trifluoro-2-hydroxypropyl]-4,5-dihydro-1H-1,2,4-triazol-1-yl}-N-{(1R)-1-(3-methyl-1,2,4-oxadiazol-5-yl)-1-[3-(trifluoro-methyl)phenyl]ethyl}acetamide]"
4.6,7.1,"COc1cccc(C(NC(=O)Cn2nc(-c3ccc(Cl)cc3)n(C[C@H](O)C(F)(F)F)c2=O)c2cccc(C(F)(F)F)c2)n1 (single isomer, unassigned) [Example 19]"
8.3,3.3,"C[C@@](NC(=O)Cn1nc(-c2ccc(Cl)cc2)n(C[C@H](O)C(F)(F)F)c1=O)(c1cccc(C(F)(F)F)c1)c1nnn[nH]1 [Example 4, 2-{3-(4-Chlorophenyl)-5-oxo-4-[(2S)-3,3,3-trifluoro-2-hydroxypropyl]-4,5-dihydro-1H-1,2,4-triazol-1-yl}-N-{(1R)-1-(1H-tetrazol-5-yl)-1-[3-(trifluoromethyl)phenyl]ethyl}acetamide]"
32,91,"COc1cccc(C(NC(=O)Cn2nc(-c3ccc(Cl)cc3)n(C[C@H](O)C(F)(F)F)c2=O)c2cccc(C(F)(F)F)c2)n1 (single isomer, unassigned) [Example 18]"
